Data published in US5183828A, “Polyhydroxybenzoic acid derivatives” (priority 1990, dated 1993).
Where a name gives a salt, the structure may show the parent alone.

Experiments:
ribonucleotide reductase = ribonucleotide reductase inhibition (conversion of CDP to dCDP), Table 1; type: biochemical; conditions: enzyme partially purified from HeLa cells or Ehrlich ascites cells; 40 min, 30° C; read-out: ID50 (inhibitory dose which inhibits ribonucleotide reductase by 50%)
Description: Compounds represented by formula I above have the ability to inhibit ribonucleotide reductase, an enzyme involved in the reductive conversion of ribonucleotides to deoxyribonucleotides. This enzymatic reaction is a rate controlling step in the biosynthetic pathway leading to DNA and cell replication. In general, the ribonucleotide reductase level is closely correlated with cellular replication. […] In addition, the compounds have shown activity against P388 leukemia and B16 melanoma.
The results of biological tests of compounds according to formula I are incorporated in a series of Tables which follow. Table 1 gives ribonucleotide reductase data for representative compounds of formula I. In the table, column 1 gives the substitution pattern in the benzene- ring, column 2, the (CHR")m group, column 3, the [drawing 5] group, and column 4, the ID50 (inhibitory dose in micromolar concentration which inhibits ribonucleotide reductase by 50%) in μmoles.
In the above determination of ID50 's in Table 1, ribonucleotide reductase is partially purified from HeLa cells or Ehrlich ascites cells by a procedure similar to that set forth by Elford et al. J. Biol. Chem., 245, 5228 (1970). The activity of the enzyme was measured by a slightly modified assay procedure originally developed by Reichard et al. id, 236, 1150 (1969). This procedure measures the conversion of CDP to dCDP. The assay mixture (0.34 ml.) contains 3 μCi of [^3 H] CDP (specific activity […]), 3.3 μmole ATP, 5.9 μmoles magnesium chloride, 8.8 μmoles Hepes buffer at pH=7.5, 15 μmoles dithiothreitol and enzyme protein between 0.4 and 1.3 mg. Incubation was provided for forty minutes at 30° C. Ion exchange chromatography employing Dowex 50 (H^+) resin is used to separate the product from the substrate. The inhibitors were dissolved in water and a mixture of water and up to 1% ethanol or 2% dimethylsulfoxide, neither one of which inhibited the enzyme at these concentrations. Each inhibitor was tested at a minimum of three concentrations and the active compounds reassayed at least one additional time. ID50 's (μmolar) were estimate from graphs summarizing results for each compound.

[1] = system: superoxide (xanthine oxidase reaction or human leukocytes); assay: effect on superoxide generation in vitro; type: biochemical
Protocol: The rate of production of superoxide from the xanthine oxidase reaction or from human leukocytes activated with phorbol myristate acetate was measured spectrophotometrically as the superoxide dismutase (SOD)-inhibitable portion of the reduction of ferricytochrome c or nitroblue tetrazolium (NBT). All assays were carried out at 37° C., pH 7.1. For the superoxide production by the xanthine oxidase reaction, a concentration of 0.04 U/ml of xanthine oxidase was used with 0.1 mM xanthine as substrate. Absorbances were measured in the presence of 30 U/ml of SOD and in its absence. The indicators were either ferricytochrome c or NBT in a concentration of 20 uM. The initial rate of reduction of NBT was monitored at 530 nm and that of cytochrome c at 550 nm. Extinction coefficients were 21.4×10 ^3 /M cm for cytochrome c and 17.9×10^3 /M cm for NBT. The initial rate of production of superoxide from leukocytes was measured using a concentration of 20 uM ferricytochrome c or NBT as described above in the presence and absence of 30 U/ml of SOD.

L1210 = assay: antileukemia activity of nitriles vs L1210, Table 8; type: in vivo
Description: Table 8 which follows gives anti-tumor data vs L-1210 and P-388 leukemia for these novel nitriles.

L1210 leukemia = assay: antitumor activity in L1210 leukemia (percent increase in survival time), Table 2; type: in vivo, mice; conditions: 8 days; for ILS at 100 mg/kg: 100 mg/kg ip daily; for ILS at 200 mg/kg: 200 mg/kg ip daily
Protocol: Testing of the compounds of this invention against L-1210 lymphoid leukemia were carried out as follows: L-1210 leukemia was maintained by weekly passage of 10^5 L-1210 cells intraperitoneally into DBA/2 mice. Diluted ascitic fluid, 0.1 ml. (10^5 cells), was administered ip to female B6D2 F1 mice weighing about 20 g. Drugs were administered ip 24 hours after tumor transplantation and injections were continued daily for a total of eight days. A group of control mice receiving only the injection medium were maintained. Table 2 which follows gives the antitumor activity against L-1210 leukemia for certain compounds of this invention. In the table, column 1 gives the name of the compound, column 2 the dose in mg./kg., and column 3 the percent increase in survival time over controls at each dose level.

[2] = free radical scavenging ability (destruction of diphenylpicrylhydrazyl), Table 7; conditions: 100 μM diphenylpicrylhydrazyl in acetone; test compound 25 μM, 2.5 μM (footnote)
Description: It is believed that the antineoplastic activity of the compounds of this invention is due in parts to their ability to scavenge free-radicals. Additionally, the compounds of this invention are cancer protective agents and this utility also may be a manifestation of their free-radical scavenging capability. Free-radical scavenging agents may also be useful in detoxifying mammals in whom an excess of free radicals is a cause and/or result of the toxicity. Other possible uses of free radical scavengers are to inhibit protaglandin transformation, leucotriene interconversion and lipogenesis, to act as inflammatory modulators and as food additive or preservatives to prevent lipid oxidation. The free radical scavenging ability of the compounds of the invention was determined by measuring the destruction of the stable free radical, diphenylpicrylhydrazyl, in the presence of the test compound in a manner similar to that reported by […] and Herzmann, Naturwiss, 47, 133-134 (1960). […] The test compound was added at a final concentration of 25 μM and the rate of reduction of absorpotion at […] was observed. Table 7 below gives the free radical scavenging abilities of the compounds of this invention expresses as the initial rate of decrease in optical density units/min.

[3] = Mus musculus, L1210, 192 h, 300 mg/kg ip daily

NC(=NO)c1cccc(O)c1O
IC50 (ribonucleotide reductase): 18 µM

3,4,5-TRIHYDROXYBENZAMIDATE
Cytochrome C Reduction ([1]; 10 uM compound): 4.89 nmol
NBT Reduction ([1]; 10 uM compound): 7.60 nmol
Cytochrome C Reduction ([1]; 20 uM compound): 3.21 nmol
NBT Reduction ([1]; 20 uM compound): 6.10 nmol
Cytochrome C Reduction ([1]; 50 uM compound): 2.22 nmol
NBT Reduction ([1]; 50 uM compound): 3.67 nmol
Cytochrome C Reduction ([1]; 100 uM compound): 1.91 nmol
NBT Reduction ([1]; 100 uM compound): 1.78 nmol
NBT Reduction ([1]; 200 uM compound): 1.45 nmol
NBT Reduction ([1]; 500 uM compound): 1.23 nmol

N#Cc1cc(O)c(O)c(O)c1O [2,3,4,5-tetrahydroxybenzonitrile]
% Increase in Survival Time (L1210; 163 mg/kg): 48.4%
% Increase in Survival Time (L1210; 230 mg/kg): Toxic

NC(=NO)c1ccc(O)c(O)c1O [2,3,4-trihydroxybenzamidoxime-HCl, 2,3,4-trihydroxybenzamidoxime]
% Increase in Survival Time (L1210 leukemia; 300 mg/kg ip daily): toxic
ILS at 100 mg/kg (L1210 leukemia; Mus musculus, L1210, 192 h): 38.9%
ILS at 200 mg/kg (L1210 leukemia; Mus musculus, L1210, 192 h): 36.1%
ILS at 218 mg/kg (L1210 leukemia; Mus musculus, L1210, 192 h, 218 mg/kg ip daily): 67.7%

N#Cc1ccc(O)c(O)c1O [2,3,4-trihydroxybenzonitrile]
% Increase in Survival Time (L1210; 50 mg/kg): 11.0%
% Increase in Survival Time (L1210; 100 mg/kg): 26.0%
% Increase in Survival Time (L1210; 155 mg/kg): 12.1%
% Increase in Survival Time (L1210; 259 mg/kg): Toxic
% Increase in Survival Time (L1210; 327 mg/kg): Toxic

Cl.NC(=NO)c1cccc(O)c1O [2,3-dihydroxybenzamidoxime-HCl]
% Increase in Survival Time (L1210 leukemia; 300 mg/kg ip daily): toxic

ON=C(NO)c1cc(O)c(O)c(O)c1 [3,4,5-trihydroxybenzohydroxyamidoxime-HCl]
initial rate of decrease in optical density (518 nm) [2]: 0.882 units/min.
ILS at 100 mg/kg (L1210 leukemia; Mus musculus, L1210, 192 h): 47.2%
ILS at 200 mg/kg (L1210 leukemia; Mus musculus, L1210, 192 h): 55.6%
ILS at 300 mg/kg (L1210 leukemia; [3]): 63.9%

Cl.N=C(N)c1ccc(O)c(O)c1 [3,4-dihydroxybenzamidine-HCl]
initial rate of decrease in optical density (518 nm) [2]: 1.721 units/min.
ILS at 52 mg/kg (L1210 leukemia; Mus musculus, L1210, 192 h, 52 mg/kg ip daily): 26.8%
ILS at 100 mg/kg (L1210 leukemia; Mus musculus, L1210, 192 h): 58.3%
ILS at 104 mg/kg (L1210 leukemia; Mus musculus, L1210, 192 h, 104 mg/kg ip daily): 34.1%
ILS at 200 mg/kg (L1210 leukemia; Mus musculus, L1210, 192 h): 41.7%
ILS at 300 mg/kg (L1210 leukemia; [3]): 47.2%
ILS at 400 mg/kg (L1210 leukemia; Mus musculus, L1210, 192 h, 400 mg/kg ip daily): 47.8%
ILS at 603 mg/kg (L1210 leukemia; Mus musculus, L1210, 192 h, 603 mg/kg ip daily): 83%

ON=C(NO)c1ccc(O)c(O)c1 [3,4-dihydroxybenzohydroxyamidoxime-HCl, 3,4-Dihydroxybenzohydroxyamidoxime hydrochloride]
ILS at 155 mg/kg (L1210 leukemia; Mus musculus, L1210, 192 h, 155 mg/kg ip daily): 39%
ILS at 200 mg/kg (L1210 leukemia; Mus musculus, L1210, 192 h): 47.8%
ILS at 300 mg/kg (L1210 leukemia; [3]): 41.3%

N#Cc1ccc(O)c(O)c1 [3,4-dihydroxybenzonitrile]
% Increase in Survival Time (L1210; 47.6 mg/kg): 4.7%
% Increase in Survival Time (L1210; 95.2 mg/kg): 15.6%
% Increase in Survival Time (L1210; 196 mg/kg): Toxic

NC(=NO)C(O)c1ccc(O)c(O)c1.O (stereo not shown) [3,4-dihydroxymandelamidoxime, 3,4-dihydroxymandelamidoxime monohydrate]
initial rate of decrease in optical density (518 nm) [2]: 0.383 units/min.
ILS at 435 mg/kg (L1210 leukemia; Mus musculus, L1210, 192 h, 435 mg/kg ip daily): 45.2%
ILS at 606 mg/kg (L1210 leukemia; Mus musculus, L1210, 192 h, 606 mg/kg ip daily): 45.2%

NC(=NO)c1ccc(O)c(O)c1 [drawing 8]
IC50 (ribonucleotide reductase): 8 µM

CCOC(=N)c1ccc(O)c(O)c1 [drawing 9]
IC50 (ribonucleotide reductase): 12 µM

N=C(N)c1ccc(O)c(O)c1 [drawing 10]
IC50 (ribonucleotide reductase): 20 µM

ON=C(NO)c1ccc(O)c(O)c1 [drawing 11]
IC50 (ribonucleotide reductase): 40 µM

NC(=NO)c1cc(O)c(O)c(O)c1 [drawing 12]
IC50 (ribonucleotide reductase): 5 µM

CCOC(=N)c1cc(O)c(O)c(O)c1 [drawing 13]
IC50 (ribonucleotide reductase): 15 µM

N=C(N)c1cc(O)c(O)c(O)c1 [drawing 14]
IC50 (ribonucleotide reductase): 25 µM

ON=C(NO)c1cc(O)c(O)c(O)c1 [drawing 16]
IC50 (ribonucleotide reductase): 25 µM

NC(=NO)c1ccc(O)c(O)c1O [drawing 17]
IC50 (ribonucleotide reductase): 7 µM

CCOC(=N)c1ccc(O)c(O)c1 [ethyl 3,4-dihydroxybenzamidate-HCl, ethyl 3,4-dihydroxybenzamidate hydrochloride]
initial rate of decrease in optical density (518 nm) [2]: 0.706 units/min.
% Increase in Survival Time (L1210 leukemia; 218 mg/kg ip daily): toxic
% Increase in Survival Time (L1210 leukemia; 327 mg/kg ip daily): toxic
% Increase in Survival Time (L1210 leukemia; 435 mg/kg ip daily): toxic

N#Cc1c(O)c(O)c(O)c(O)c1O [pentahydroxybenzonitrile]
% Increase in Survival Time (L1210; 34.3 mg/kg): 14.2%
% Increase in Survival Time (L1210; 51.5 mg/kg): 0%
% Increase in Survival Time (L1210; 77.2 mg/kg): Toxic
% Increase in Survival Time (L1210; 116.0 mg/kg): Toxic
